This is an account of results in patent US20100267706A1, “Compounds, Compositions and Methods Comprising Pyridazine Derivatives” (Institute for OneWorld Health, priority 2009, published 2010).

In general, IC50 refers to the concentration needed to halve the response being measured. A lower IC50 goes with greater potency in that assay.

T1 sequence (P13569 whole entry): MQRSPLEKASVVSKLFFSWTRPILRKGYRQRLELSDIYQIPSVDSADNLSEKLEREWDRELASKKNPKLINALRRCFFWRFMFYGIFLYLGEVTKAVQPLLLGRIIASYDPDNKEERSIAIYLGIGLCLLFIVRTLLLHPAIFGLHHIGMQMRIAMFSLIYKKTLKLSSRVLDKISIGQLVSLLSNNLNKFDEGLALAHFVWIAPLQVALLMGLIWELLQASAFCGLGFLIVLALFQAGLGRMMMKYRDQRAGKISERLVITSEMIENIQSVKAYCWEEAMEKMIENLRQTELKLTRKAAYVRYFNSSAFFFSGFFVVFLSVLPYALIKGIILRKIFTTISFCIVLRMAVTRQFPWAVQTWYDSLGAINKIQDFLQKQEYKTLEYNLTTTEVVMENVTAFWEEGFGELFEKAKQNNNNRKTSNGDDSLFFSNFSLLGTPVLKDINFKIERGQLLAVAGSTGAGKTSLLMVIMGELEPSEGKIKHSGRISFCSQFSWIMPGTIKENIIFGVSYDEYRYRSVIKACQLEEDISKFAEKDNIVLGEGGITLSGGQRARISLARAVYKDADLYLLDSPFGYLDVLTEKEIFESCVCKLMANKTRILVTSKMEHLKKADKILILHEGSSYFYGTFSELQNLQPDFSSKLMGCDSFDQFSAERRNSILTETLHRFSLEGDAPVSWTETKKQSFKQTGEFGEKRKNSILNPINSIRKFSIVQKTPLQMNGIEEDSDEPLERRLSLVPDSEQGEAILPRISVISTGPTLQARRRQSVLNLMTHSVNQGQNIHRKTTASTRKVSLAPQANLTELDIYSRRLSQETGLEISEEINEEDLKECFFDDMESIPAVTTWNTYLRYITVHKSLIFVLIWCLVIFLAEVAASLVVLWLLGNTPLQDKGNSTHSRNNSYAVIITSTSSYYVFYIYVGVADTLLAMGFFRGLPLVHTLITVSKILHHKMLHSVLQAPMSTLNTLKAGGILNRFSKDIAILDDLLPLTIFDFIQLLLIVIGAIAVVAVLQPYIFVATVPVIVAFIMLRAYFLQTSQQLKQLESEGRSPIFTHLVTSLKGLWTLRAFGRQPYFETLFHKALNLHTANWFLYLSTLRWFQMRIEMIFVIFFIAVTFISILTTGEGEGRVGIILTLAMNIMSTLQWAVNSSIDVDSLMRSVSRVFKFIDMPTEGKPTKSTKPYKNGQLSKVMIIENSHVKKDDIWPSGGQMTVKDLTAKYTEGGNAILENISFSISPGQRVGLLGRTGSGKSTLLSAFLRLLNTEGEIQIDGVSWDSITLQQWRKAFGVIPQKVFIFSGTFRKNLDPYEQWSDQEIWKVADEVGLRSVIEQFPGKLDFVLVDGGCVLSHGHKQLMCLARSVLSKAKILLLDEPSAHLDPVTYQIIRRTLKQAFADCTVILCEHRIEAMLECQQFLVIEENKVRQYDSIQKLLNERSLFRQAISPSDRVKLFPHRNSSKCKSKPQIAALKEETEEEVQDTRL

The subject of the first assay is cholera toxin (CTX)-induced net fluid secretion in small intestine loops.
Assay: not given
It counts as in vivo, mice (CD1 strain). The following applies: 4 hours.
With `O=C(c1cc(-c2cc(Cl)c(O)c(Cl)c2)nnc1OCCc1ccc(Cl)cc1)N(CCO)Cc1ccccc1` [Compound 11, N-benzyl-3-(4-chlorophenethoxy)-6-(3,5-dichloro-4-hydroxyphenyl)-N-(2-hydroxyethyl)pyridazine-4-carboxamide], the “closed loop % inhibition@100 μg” value was 63.2%.

Another assay addresses T1, CFTR (Homo sapiens, UniProt P13569).
T1 construct: host or cells: Human colonic T84 cells
In words: T84 assay (FLIPR membrane potential, forskolin/IBMX-stimulated CFTR channel activity). It counts as cell-based. The following applies: Human colonic T84 cells; average of at least 2 runs unless annotated n = 1. As to the method: (§1) For example, Human colonic T84 cells can be acquired from the European Collection of Cell Cultures (ECACC) and grown in standard culture conditions as described by the supplier. On the day before assay 25,000 T84 cells per well are plated into standard black walled, clear bottom 384-well assay plates in standard growth medium consisting of DMEM:F12 with 10% FBS and incubated overnight. On the day of the assay the plates are washed using a standard assay buffer (HBSS with 10 mM Hepes) and incubated for 15 minutes in serum free cell culture medium before the addition of a commercially available membrane potential sensitive fluorescent dye (FLIPR Red membrane potential dye, Molecular Devices Corporation). T84 cells are incubated with the FLIPR Red membrane potential dye for 45 minutes in the presence and absence of test compound before being transferred to a commercially available fluorescence imaging plate reader (FLIPR384, Molecular Devices Corporation). Fluorescence levels are monitored continuously every second for 150 seconds; after an initial 10 second baseline, CFTR channel activity is stimulated through the addition of 10 μM forskolin in the presence of 100 μM of the phosphodiesterase inhibitor iso-butyl-methylxanthine (IBMX). Addition of the forskolin leads to the activation of intracellular adenylyl cylase 1, elevating cAMP levels and results in the phosphorylation and opening of CFTR anion channels. CFTR channel opening causes chloride ion efflux and subsequent depolarization of the cells, which is measured by an increase in fluorescence. CFTR inhibitor compounds prevent cell depolarization and the associated increase in fluorescence.
as §1, with “Human colonic” for “For example, Human colonic”, “T84 cells are acquired from” for “T84 cells can be acquired from”, “(ECACC) and are grown in” for “(ECACC) and grown in”
Molecule `O=C(c1cc(-c2cc(Cl)c(O)c(Cl)c2)nnc1OCCc1ccc(Cl)cc1)N(CCO)Cc1ccccc1` [Compound 11, N-benzyl-3-(4-chlorophenethoxy)-6-(3,5-dichloro-4-hydroxyphenyl)-N-(2-hydroxyethyl)pyridazine-4-carboxamide] came in with an IC50 of 8.26 µM.

`COc1ccc(CN(CCO)C(=O)c2cc(-c3cc(Cl)c(O)c(Cl)c3)nnc2OCCc2ccc(Cl)cc2)cc1OC` [Compound 33, 3-(4-chlorophenethoxy)-6-(3,5-dichloro-4-hydroxyphenyl)-N-(3,4-dimethoxybenzyl)-N-(2-hydroxyethyl)pyridazine-4-carboxamide] displayed a half-inhibitory concentration (IC50) of 13.7 µM.

For the molecule `CN(Cc1ccccc1)C(=O)c1cc(-c2cc(Cl)c(O)c(Cl)c2)nnc1OCCc1ccc(Cl)cc1` [Compound 28, N-benzyl-3-(4-chlorophenethoxy)-6-(3,5-dichloro-4-hydroxyphenyl)-N-methylpyridazine-4-carboxamide], it took 10.2 µM to reach half-maximal inhibition (IC50).

For the molecule `O=C(c1cc(-c2cc(Cl)c(O)c(Cl)c2)nnc1OCCc1ccc(Cl)cc1)N(CCO)Cc1ccc2c(c1)OCO2` [Compound 32, N-(benzo[d][1,3]dioxol-5-ylmethyl)-3-(4-chlorophenethoxy)-6-(3,5-dichloro-4-hydroxyphenyl)-N-(2-hydroxyethyl)pyridazine-4-carboxamide], half-maximal inhibition (IC50) required 16.1 µM.

For `Oc1c(Cl)cc(-c2cc(N3CCN(Cc4ccc(OCCN5CCOCC5)cc4)CC3)c(OCCc3ccc(Cl)cc3)nn2)cc1Cl` [Compound 14, 2,6-dichloro-4-(6-(4-chlorophenethoxy)-5-(4-(4-(2-morpholinoethoxy)benzyl)piperazin-1-yl)pyridazin-3-yl)phenol], inhibition was half-maximal at 9.45 µM (IC50).

With `Oc1c(Cl)cc(-c2cc(N3CCN(Cc4ccc(OCCCN5CCC(F)(F)CC5)cc4)CC3)c(OCCc3ccc(Cl)cc3)nn2)cc1Cl` [Compound 18, 2,6-dichloro-4-(6-(4-chlorophenethoxy)-5-(4-(4-(3-(4,4-difluoropiperidin-1-yl)propoxy)benzyl)piperazin-1-yl)pyridazin-3-yl)phenol], half-maximal inhibition (IC50) was put at 7.5 µM.

With `O=C(c1cc(-c2cc(Cl)c(O)c(Cl)c2)nnc1OCCc1ccc(Cl)cc1)N(CCO)Cc1cccnc1` [Compound 24, 3-(4-chlorophenethoxy)-6-(3,5-dichloro-4-hydroxyphenyl)-N-(2-hydroxyethyl)-N-(pyridin-3-ylmethyl)pyridazine-4-carboxamide], the IC50 stood at 19.4 µM.

Regarding `O=C(Cc1ccccn1)N1CCN(c2cc(-c3cc(Cl)c(O)c(Cl)c3)nnc2OCCc2ccc(Cl)cc2)CC1` [Compound 3, 1-(4-(3-(4-Chlorophenethoxy)-6-(3,5-dichloro-4-hydroxyphenyl)pyridazin-4-yl)piperazin-1-yl)-2-(pyridin-2-yl)ethanone], the concentration for half-maximal inhibition (IC50) was 18.1 µM.

Turning to `O=C(NCc1ccc(C(F)(F)F)cc1)c1cc(-c2cc(Cl)c(O)c(Cl)c2)nnc1OCCc1ccc(Cl)cc1` [Compound 7, 3-(4-chlorophenethoxy)-6-(3,5-dichloro-4-hydroxyphenyl)-N-(4-(trifluoromethyl)benzyl)pyridazine-4-carboxamide], the concentration for half-maximal inhibition (IC50) came to 16.5 µM.

In turn, `O=C(c1cc(-c2cc(Cl)c(O)c(Cl)c2)nnc1OCCc1ccc(Cl)cc1)N(CCO)Cc1ccc(F)cc1` [Compound 10, 3-(4-chlorophenethoxy)-6-(3,5-dichloro-4-hydroxyphenyl)-N-(4-fluorobenzyl)-N-(2-hydroxyethyl)pyridazine-4-carboxamide] came in with an IC50 of 12.1 µM.
